One data set concerns A549 cells. The data set can be described thus: Cytotoxicity A549. Type of data set: cell-based. The conditions noted are these: Homo sapiens, A549, read-out: A549 % inhibition at 100 µM (metabolic activity), 48 hours. The protocol: (§1) HepG2 (human hepatocellular carcinoma), HEK293 (human embryonal kidney) and A549
(§2) (human lung carcinoma) cells (2x10^5 cells per well) were seeded in 24-well in flat-bottomed
(§3) plates. Culturing of cells, incubations and OD measurements were performed as described
(§4) previously with small modifications.[14] Twenty-four hours after seeding the cells the incubation
(§5) was started by the addition of compounds in a final DMSO concentration of 1%. The living cell
(§6) mass was determined after 48 hours in a PHERAstar microplate reader (BMG labtech,
(§7) Ortenberg, Germany). Two independent measurements were performed for each compound.

The nature of a further data set: Plasma stability, mouse. Type of data set: in vitro ADME. The conditions noted are these: CD-1, read-out: Plasma t1/2 Mouse. The method, then:
(§8) To determine stability in plasma, the compound (1 µM) was incubated with pooled CD -1 […]
(§9) mouse/human/Wistar rat or Göttingen minipig plasma (Neo Biotech, Nanterre, France).
(§10) Samples were taken by mixing aliquots with 4 volumes of acetonitrile containing internal […]
(§11) standard (125 nM diphenhydramine). The plasma stability of procain, propantheline and diltiazem were determined in parallel to confirm the enzymatic activity. Samples were stored […]
(§12) on ice until the end of the incubation and precipitated protein was removed by centrifugation […]
(§13) (15 min, 4 °C, 4,000 g, two centrifugation steps). Concentration of the remaining test compound at the different time points was analyzed by HPLC-MS/MS (TSQ Quantum Access MAX, […]
(§14) Thermo Fisher, Dreieich, Germany) and used to determine half-life (t1/2).
(§15) Table S2: Additional in vitro ADMET data for selected dipeptides. n.d.: not determined.
(§16) Kinetic Liver S9 Clint [µL/mg/min] Plasma t1/2 [min] LogD7.4 […]
(§17) pH 7.4 [µM] Mouse Human Mouse Human

The target of the next data set is T1, TACE (ADAM17) (Homo sapiens, UniProt P78536).
T1 construct: purchased Sigma-Aldrich (Saint Louis, MO)
The data set can be described thus: TACE (ADAM17) inhibition (off-target). The conditions noted are these: read-out: TACE (ADAM17) % inhibition at 100 µM. Type of data set: biochemical. The protocol:
(§18) 3.1 In vitro inhibition assays
(§19) LasB was expressed and purified as described previously.[3] In vitro inhibition assays (LasB, MMPs, TACE). All in vitro inhibition assays were performed as described previously.[10] TACE inhibitor screening kits were purchased from Sigma-Aldrich (Saint Louis, MO). MMPs along with the SensoLyte 520 Generic MMP Activity Kit Fluorimetric were purchased from AnaSpec (Fremont, CA, USA). The assays were performed according to the guidelines of the respective manufacturer. Fluorescence signals were measured using a CLARIOstar plate reader (BMG Labtech, Ortenberg, Germany). […]
(§20) 3.8 Test against zinc metalloproteases MMP1–3 and TACE (ADAM17), and testing of
(§21) We selected a panel of human off -targets, including three human matrix metalloproteases (MMP-1, -2 and -3) and TACE (ADAM-17). These assays were performed as described previously.[3] The TACE inhibitor screening kit was purchased from Sigma -Aldrich (Saint Louis, MO). MMPs along with the SensoLyte 520 Generic MMP Activity Kit Fluorimetric were purchased from AnaSpec (Fremont, CA, USA). The assays were performed according to the guidelines of the respective manufacturer. Fluorescence signals were measured using a CLARIOstar plate reader (BMG Labtech, Ortenberg, Germany). […]
(§22) Table S6: Percent (%) inhibition of three MMPs (1 –3) and TACE (ADAM17) in presence of selected LasB inhibitors at 100 µM. Results are means and SD of at least two independent experiments. […]
(§23) Compound [% inhibition at [% inhibition at [% inhibition at [% inhibition at 100

For another data set, the system named is HEK293 cells. Put plainly: Cytotoxicity HEK293. It is filed as cell-based. The conditions noted are these: Homo sapiens, HEK293, read-out: HEK293 % inhibition at 100 µM (metabolic activity), 48 hours. The method, then:
as §1, §2, §3, §4, §5, §6, §7

The target of a further data set is T2, LasB (Pseudomonas aeruginosa, UniProt Q02RJ6).
T2 construct: made in house
Put plainly: In vitro LasB inhibition assay. The note with it: IC50 LasB inhibition. It is filed as biochemical. The protocol:
as §18
LasB was expressed and purified as described previously.[3] In vitro inhibition assays (LasB,
MMPs, TACE). All in vitro inhibition assays were performed as described previously.[10] […]
Fluorescence signals were measured using a CLARIOstar plate reader (BMG
Labtech, Ortenberg, Germany). […]

Data set [1] is described as follows: Kinetic solubility in PBS pH 7.4. It is filed as physicochemical. The note with it: aqueous buffer, kinetic from dmso stock. The method, then:
The desired compounds were sequentially diluted in DMSO in a 96-well plate. 1.5 µL of each well were transferred into another 96-well plate and mixed with 148.5 µL of PBS. Plates were shaken for 5 min at 600 rpm at room temperature (r.t.), and the absorbance at 620 nm was measured. Absorbance values were normalized by blank subtraction and plotted using GraphPad Prism 8.4.2 (GraphPad Software, San Diego, CA, USA). […]

A further data set can be described thus: Plasma stability, human. It is filed as in vitro ADME. The conditions noted are these: read-out: Plasma t1/2 Human. The protocol:
as §8, §9, §10, §11, §12, §13, §14, §15, §16, §17

For a further data set, the system named is HepG2 cells. Put plainly: Cytotoxicity HepG2. Type of data set: cell-based. The conditions noted are these: Homo sapiens, HepG2, read-out: HepG2 % inhibition at 100 µM (metabolic activity), 48 hours. The protocol:
as §1, §2, §3, §4, §5, §6, §7

Another data set concerns the target T3, MMP-3 (Homo sapiens, UniProt P08254).
T3 construct: purchased AnaSpec (Fremont, CA, USA)
Put plainly: MMP-3 inhibition (off-target). Type of data set: biochemical. The conditions noted are these: read-out: MMP-3 % inhibition at 100 µM. The method, then: as §18, §19, §20, §21, §22, §23

Data set [2] is described as follows: Lipophilicity determination (HPLC-based LogD7.4). It is filed as physicochemical. The conditions noted are these: C18 column; pH 7.4, HPLC-based.
Data set [3] can be described thus: Stability in mouse liver microsomes. Type of data set: in vitro ADME. The note with it: read-out: Mouse Liver Microsomes t1/2. The method, then: (§24) Samples were stored on ice until the end of the incubation and precipitated protein was removed by centrifugation (15 min, 4 °C, 4,000 g). Concentration of the remaining test […]
(§25) compound at the different time points was analyzed by HPLC-MS/MS (TSQ Quantum Access […]
(§26) MAX, Thermo Fisher, Dreieich, Germany) and used to determine half -life (t1/2) and intrinsic […]
(§27) Species profiling was conducted as above using 0.5 mg/mL pooled mouse, rat or minipig liver microsomes (Xenotech, Kansas City, USA) with 2 mM NADPH and 10 mM MgCl2 and testosterone, verapamil and ketoconazole as reference compounds. […]
as §14, §15, §16, §17
Background: Microsomes from liver hold many membrane-bound enzymes, among them those of drug oxidation.

Data set [4] can be described thus: Stability in rat liver microsomes. The conditions noted are these: Wistar, read-out: Rat Liver Microsomes t1/2. It is filed as in vitro ADME. The method, then: as §24, §25, §26, §27, §14, §15, §16, §17

Where “and” joins values, the source holds several entries; their conditions need not be identical. Identical values can stand only once. Some results are limits rather than exact numbers.

T3 sequence (P08254 100-477): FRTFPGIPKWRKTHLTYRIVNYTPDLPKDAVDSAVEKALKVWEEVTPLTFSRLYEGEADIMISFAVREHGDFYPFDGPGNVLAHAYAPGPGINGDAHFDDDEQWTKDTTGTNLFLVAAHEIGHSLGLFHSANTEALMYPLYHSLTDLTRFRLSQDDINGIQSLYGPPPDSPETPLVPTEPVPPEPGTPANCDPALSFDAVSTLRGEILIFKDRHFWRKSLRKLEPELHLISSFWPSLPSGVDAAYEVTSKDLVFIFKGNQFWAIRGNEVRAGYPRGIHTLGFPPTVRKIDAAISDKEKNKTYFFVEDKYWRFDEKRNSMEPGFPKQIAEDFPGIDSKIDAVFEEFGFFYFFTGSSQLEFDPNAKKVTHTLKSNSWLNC
T2 sequence (Q02RJ6 198-498): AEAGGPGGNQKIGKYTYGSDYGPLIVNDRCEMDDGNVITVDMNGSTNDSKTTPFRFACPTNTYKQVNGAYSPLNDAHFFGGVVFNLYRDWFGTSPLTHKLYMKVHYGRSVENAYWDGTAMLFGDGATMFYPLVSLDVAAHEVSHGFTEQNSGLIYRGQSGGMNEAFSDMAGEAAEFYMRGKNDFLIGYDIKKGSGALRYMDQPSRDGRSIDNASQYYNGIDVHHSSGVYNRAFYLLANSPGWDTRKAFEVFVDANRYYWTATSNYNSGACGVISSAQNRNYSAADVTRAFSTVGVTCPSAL
T1 sequence (P78536 215-824): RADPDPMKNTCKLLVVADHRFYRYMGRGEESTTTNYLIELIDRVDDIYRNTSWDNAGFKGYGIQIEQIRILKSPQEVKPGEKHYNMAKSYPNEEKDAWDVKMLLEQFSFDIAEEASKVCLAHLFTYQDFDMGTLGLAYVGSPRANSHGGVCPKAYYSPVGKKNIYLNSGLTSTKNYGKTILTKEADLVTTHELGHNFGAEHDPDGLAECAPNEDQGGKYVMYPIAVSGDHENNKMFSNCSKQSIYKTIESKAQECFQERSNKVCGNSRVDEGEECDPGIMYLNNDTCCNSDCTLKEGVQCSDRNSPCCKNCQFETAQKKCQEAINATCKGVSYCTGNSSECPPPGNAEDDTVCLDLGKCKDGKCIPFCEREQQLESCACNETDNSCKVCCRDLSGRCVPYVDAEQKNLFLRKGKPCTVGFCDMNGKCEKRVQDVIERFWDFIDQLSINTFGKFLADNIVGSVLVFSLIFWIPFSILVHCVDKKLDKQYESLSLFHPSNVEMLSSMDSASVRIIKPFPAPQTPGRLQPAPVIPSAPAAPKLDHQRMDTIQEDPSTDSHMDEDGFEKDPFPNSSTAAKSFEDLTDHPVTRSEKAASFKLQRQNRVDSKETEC

In general, inhibition refers to the relative decrease from the control value, in per cent. The IC50 is the midpoint of a concentration-inhibition curve. A higher IC50 goes with a need for much substance. One may read the kinetic solubility as solubility judged after dilution from a stock solution rather than from solid. With `CC(=O)c1ccc(NC(=O)[C@@H](NC(=O)[C@@H](CC(C)C)P(=O)(O)O)C(C)C)cc1` [(R)‐30], the inhibition at 100 µM in the data set on A549 cells was < 10%; on TACE (ADAM17) it was 13 ± 2%; in the data set with HEK293 cells, < 10%; in the data set on HepG2 cells, < 10%; at MMP-3 it was < 10%. The half-life at 1 µM is > 2.5 h in “Plasma stability, mouse” and > 2.5 h in “Plasma stability, human”. On LasB, the IC50 is 4 nM and 3.7 nM. In addition, the solubility (kinetic) at 5 min in data set [1] is > 200 µM.

As a reminder, the chromatographic logD is lipophilicity estimated from chromatographic retention. A higher chromatographic logD goes with higher lipophilicity. Regarding `CC(C)C[C@H](C(=O)N[C@H](C(=O)Nc1ccc(-n2ccnc2)cc1)C(C)C)P(=O)(O)O` [(R)‐36], the chromatographic logD in data set [2] was -0.67. Also, the inhibition at 100 µM in the data set on A549 cells is < 10%; at TACE (ADAM17), < 10%; with HEK293 cells it was 11 ± 9%; with HepG2 cells, < 10%; at MMP-3 it was < 10%. Further, the half-life at 1 µM in the data set “Plasma stability, mouse” is > 2.5 h; in the data set “Plasma stability, human” it was > 2.5 h. In addition, the midpoint of inhibition at LasB, the IC50, lay at 10.9 ± 0.3 nM. For the same compound, in data set [1], the solubility (kinetic) at 5 min is > 200 µM.

As for `CC(C)CC(C(=O)N[C@H](C(=O)Nc1ccc(Cl)c(Cl)c1)C(C)C)P(=O)(O)O` (stereo partly shown) [compound 9], the inhibition at 100 µM in the data set with A549 cells, at TACE (ADAM17), with HEK293 cells, with HepG2 cells and at MMP-3 was < 10% each time. The half-life at 1 µM in “Plasma stability, mouse” is > 2.5 h; in the data set “Plasma stability, human”, > 2.5 h. The solubility (kinetic) at 5 min in [1] was > 200 µM.

As for `CC(C)CC(C(=O)N[C@H](C(=O)Nc1ccc(Cl)c(Cl)c1)C1CCC1)P(=O)(O)O` (stereo partly shown) [compound 13], the chromatographic logD in [2] is -0.58. The inhibition at 100 µM in the data set with A549 cells, at TACE (ADAM17), with HEK293 cells, with HepG2 cells and at MMP-3 was < 10% throughout. For the same compound, the half-life at 1 µM in the data set “Plasma stability, mouse” is > 2.5 h; in “Plasma stability, human”, > 2.5 h. Moreover, on LasB, half-maximal inhibition (IC50) required 11.9 ± 0.3 nM. Besides, the solubility (kinetic) at 5 min in [1] is > 200 µM.

The compound `CC(C)CC(C(=O)N[C@H](C(=O)Nc1ccc(Cl)c(Cl)c1)C1CCCCC1)P(=O)(O)O` (stereo partly shown) [compound 14] had a chromatographic logD in data set [2] of 1.14. Besides, the inhibition at 100 µM with A549 cells is < 10%; at TACE (ADAM17), < 10%; in the data set on HEK293 cells it was 51 ± 4%; in the data set on HepG2 cells, 13%; on MMP-3, < 10%. Further, the half-life at 1 µM was > 2.5 h in “Plasma stability, mouse” and > 2.5 h in “Plasma stability, human”. This compound displayed an IC50 on LasB of 12.4 ± 0.3 nM. Moreover, the kinetic solubility at 5 min in data set [1] is > 200 µM.

Turning to `CC(=O)c1ccc(NC(=O)[C@@H](NC(=O)C(CC(C)C)P(=O)(O)O)C(C)C)cc1` (stereo partly shown) [compound 30], the inhibition at 100 µM in the data set with A549 cells is < 10%; at TACE (ADAM17), 13 ± 4%; in the data set with HEK293 cells, < 10%; in the data set on HepG2 cells it was < 10%; on MMP-3, < 10%. Moreover, the half-life at 1 µM in “Plasma stability, mouse” is > 2.5 h; in data set [3], > 2 h; in the data set “Plasma stability, human” it was > 2.5 h; in data set [4], > 2 h. Also, the IC50 on LasB amounted to 5 ± 0.2 nM. For the same compound, the kinetic solubility at 5 min in data set [1] was > 200 µM.

For the origin of these results see paper PMC11984924, “Dipeptidic Phosphonates: Potent Inhibitors of Pseudomonas aeruginosa Elastase B Showing Efficacy in a Murine Keratitis Model” (Advanced Science, 2025).
